Values of other authors in patent US20160158274A1, “COMPOSITION FOR MUCOUS DISPERSION OR HYDRATION, CONTAINING POLY-r-[sequence] ACID” (BIOLEADERS CORPORATION, priority 2013, published 2016).

Tested on: mucin
Conditions: mucin in cystic fibrosis

Structure (SMILES): O=C(O)CN(CCN(CC(=O)O)CC(=O)O)CC(=O)O [EDTA]
- dispersion of aggregated mucin: assist in dispersion of mucin
